According to patent US20030190365A1, “Methods for wet granulating azithromycin” (Pfizer Inc., priority 2001, published 2003):

Key:
[1] = Equilibrium solubility of azithromycin forms in granulating liquids (HPLC-UV)
Protocol: Equilibrium solubility of several different forms of azithromycin, in typical liquids used in the wet granulation process, were evaluated as follows.
Excess azithromycin was added as a solid into each respective test liquid and mixed by rotation using a Labquake Rotating Mixer® at 7 revolutions per minute (RPM). Duplicate samples were run for each condition. Excess drug material was added to achieve saturation. Once saturation was achieved, the samples were rotated for 48 hours with sampling intervals at 24 and 48 hours. Azithromycin form A was also set up for a 7-day equilibrium solubility analysis to assure equilibrium beyond 48 hours. At each sampling interval, approximately half (1 mL) the sample was transferred into a polyethylene microcentrifuge tube and centrifuged at 15,000 RPM for 20 minutes using the Eppendorf Centrifuge Model # 5403. Following centrifugation, the liquid layer was pipetted and diluted with 0.04 M potassium phosphate dibasic (pH=8): acetonitrile (4:6). Dilutions were made accordingly until the peak area fell into the linear curve range of the standards (0.15 to 1.5 mgA/mL). Samples were run by HPLC (HP-1100 system, Agilent Technologies, Wilmington, Del.) with UV detection at 210 nm. The sample data was calculated by linear regression against the standard curve based on azithromycin form A.

[2] = As-is and tapped density of bulk drug and dried granulations (Van Kel tap density tester); format: physicochemical
Protocol: Form F bulk drug contained soft lumps and was sieved through an 18 mesh (1.0 mm) screen before use. A small-scale granulation process, as described in Example 1, was used for samples of 5 g of bulk drug. The liquid was pipetted in 0.1 to 1.0 mL increments until a granulation was formed, based on visual observations, followed by wet mixing for 3-5 minutes. All three runs formed wet granulations, but the run with water was much less granular than the non-aqueous runs. All of the samples were dried overnight at 40° C. for 16 hours. […] The two nonaqueous liquid runs appeared to be only ˜50% granules, and the water run was only slightly granular.
Samples of the dried granules were then hand sieved through an 18 mesh screen and the density was determined, as shown above in Table 2C. SEM's were taken of dried samples both before and after sieving was done to aid in the evaluation.
A small-scale process, as described in Example 1, was used to granulate the formulations. The ingredients (except for the lubricant), to make a 10 g lot for each run, were pre-blended for 5 minutes on a Turbula Shaker-Mixer (Willy A. Bachofen AG Maschinenfabrik, Basel, Switzerland). The blend was granulated per Example 1. The liquid was pipetted in 0.1 to 1.0 mL increments and mixed for 2.5-6 minutes until a granulation was formed. All of the samples were dried overnight at 40° C. for 16 hours. The amount of densification varied depending on the excipients used in the formulation. […] Tablets were not made from these four granulation runs because of the poor quality.
A small-scale process, as described in Example 1, was used to granulate the formulations into 10 g lots. The liquid was pipetted in 0.1 to 1.0 mL increments and mixed for 2-5 minutes until a granulation was formed. All of the samples were dried overnight at 40° C. for 16 hours in a forced hot air oven and then hand sieved through a 18 mesh (1.0 mm) screen.
A small-scale process, as described in Example 1, was used to granulate the formulations. The granulating liquid was pipetted in 0.1 to 1.0 mL increments and mixed with the 9.3 g of the dry blend for 3-6 minutes until a granulation was formed. The granulating amount, of 30, 27 and 29%, was used for the PVP granulating liquid in ethanol, water and 50:50 ethanol:water, respectively. The amount of liquid used was 2.5-3 mL, therefore the amount of solid (PVP) added in solution based on the 10 g final batch size was from about 0.25 to 0.3%. All of the samples were dried overnight at 40° C. for 16 hours and then hand sieved through a 16 mesh (1.2 mm) screen.
A small-scale process, as described in Example 1, was used to granulate the formulations to make 10 g lots. Each formulation was pre-blended for 5 minutes on a Turbula Shaker-Mixer (Willy A. Bachofen AG Maschinenfabrik, Basel, Switzerland) for 5 minutes. The blend was then granulated as described in Example 1. The liquid was pipetted in 0.1 to 1.0 mL increments and mixed for 4-8 minutes until a granulation was formed. All of the samples were dried overnight at 40° C. for 16 hours and then hand sieved through a 16 mesh (1.2mm) screen. The densities of the granulations were then compared to the bulk drug and to each other. The amount of densification varied depending on the components used in the formulation.

[3] = 24 hours, EtOH 33% in water v/v
[4] = 24 hours, EtOH 67% in water v/v
[5] = 48 hours, EtOH 33% in water v/v
[6] = 48 hours, EtOH 67% in water v/v

SMILES	solubility [1, 3] [mgA/mL]	solubility [1, 4] [mgA/mL]	solubility ([1]; 24 hours, EtOH 100% neat) [mgA/mL]	solubility ([1]; 24 hours, IPA 33% in water v/v) [mgA/mL]	solubility ([1]; 24 hours, IPA 67% in water v/v) [mgA/mL]	solubility ([1]; 24 hours, IPA 100% neat) [mgA/mL]	solubility ([1]; 24 hours, water) [mgA/mL]	solubility [1, 5] [mgA/mL]	solubility [1, 6] [mgA/mL]	solubility ([1]; 48 hours, EtOH 100% neat) [mgA/mL]	solubility ([1]; 48 hours, IPA 33% in water v/v) [mgA/mL]	solubility ([1]; 48 hours, IPA 67% in water v/v) [mgA/mL]	solubility ([1]; 48 hours, IPA 100% neat) [mgA/mL]	solubility ([1]; 48 hours, water) [mgA/mL]	As Is Density ([2]; Example 3) [g/cc]	Tapped Density ([2]; Example 3) [g/cc]	other results
CC[C@H]1OC(=O)[C@H](C)[C@@H](O[C@H]2C[C@@](C)(OC)[C@@H](O)[C@H](C)O2)[C@H](C)[C@@H](O[C@@H]2O[C@H](C)C[C@H](N(C)C)[C@H]2O)[C@](C)(O)C[C@@H](C)CN(C)[C@H](C)[C@@H](O)[C@]1(C)O [form A, 9-deoxo-9a-aza-9a-methyl-9a-homoerythromycin A, reference compound]	1.30	27.48	219.74	5.50	68.71	291.91	0.10	1.23	27.25	211.59	5.25	67.70	280.91	0.14	–	–	solubility ([1]; 7 days, EtOH 33% in water v/v): 1.27 mgA/mL; solubility ([1]; 7 days, EtOH 67% in water v/v): 27.02 mgA/mL; solubility ([1]; 7 days, EtOH 100% neat): 214.76 mgA/mL; solubility ([1]; 7 days, IPA 33% in water v/v): 5.28 mgA/mL; solubility ([1]; 7 days, IPA 67% in water v/v): 66.63 mgA/mL; solubility ([1]; 7 days, IPA 100% neat): 286.45 mgA/mL; solubility ([1]; 7 days, water): 0.11 mgA/mL; solubility in pure water compared to all other forms ([1]; relative to the other forms): approximately one-half; solubility in the isopropanol solutions compared to all other forms ([1]; relative to the other forms): lower solubility
CCC1OC(=O)C(C)C(O[C@H]2C[C@@](C)(OC)[C@@H](O)C(C)O2)C(C)[C@@H](OC2OC(C)CC(N(C)C)[C@H]2O)[C@@](C)(O)C[C@@H](C)CN(C)[C@H](C)[C@@H](O)[C@]1(C)O (stereo partly drawn) [form F, azithromycin monohydrate hemi-ethanol solvate]	0.98	27.86	228.34	10.04	94.09	367.02	0.19	1.06	27.56	229.87	9.41	79.90	362.64	0.21	0.290	0.439	As is Density ([2]; Example 2, form F, Table 2A): 0.290 g/cc; Tapped Density ([2]; Example 2, form F, Table 2A, 2000 taps): 0.439 g/cc; As is Density ([2]; Example 2, form F, Table 2C): 0.290 g/cc; Tapped Density ([2]; Example 2, form F, Table 2C): 0.439 g/cc; As Is Density ([2]; Example 6, form F): 0.290 g/cc; Tapped Density ([2]; Example 6, form F): 0.439 g/cc; As Is Density ([2]; Example 7, form F): 0.290 g/cc; Tapped Density ([2]; Example 7, form F): 0.439 g/cc
CC[C@H]1OC(=O)[C@H](C)[C@@H](O[C@H]2C[C@@](C)(OC)[C@@H](O)[C@H](C)O2)[C@H](C)[C@@H](O[C@@H]2O[C@H](C)C[C@H](N(C)C)[C@H]2O)[C@](C)(O)C[C@@H](C)CN(C)[C@H](C)[C@@H](O)[C@]1(C)O [form G, azithromycin sesquihydrate]	–	–	–	–	–	–	–	–	–	–	–	–	–	–	–	–	As Is Density ([2]; Example 3, sesquihydrate): 0.290 g/cc; Tapped Density ([2]; Example 3, sesquihydrate): 0.450 g/cc
CCC1OC(=O)C(C)C(O[C@H]2C[C@@](C)(OC)[C@@H](O)C(C)O2)C(C)[C@@H](OC2OC(C)CC(N(C)C)[C@H]2O)[C@@](C)(O)C[C@@H](C)CN(C)[C@H](C)[C@@H](O)[C@]1(C)O (stereo partly drawn) [form J, azithromycin monohydrate hemi-n-propanol solvate]	0.95	27.15	224.77	9.81	113.05	315.94	0.18	0.99	26.30	208.99	9.40	106.51	295.88	0.22	0.377	0.649	–
CCC1OC(=O)C(C)C(O[C@H]2C[C@@](C)(OC)[C@@H](O)C(C)O2)C(C)[C@@H](OC2OC(C)CC(N(C)C)[C@H]2O)[C@@](C)(O)C[C@@H](C)CN(C)[C@H](C)[C@@H](O)[C@]1(C)O (stereo partly drawn) [form M, azithromycin monohydrate hemi-isopropanol solvate]	0.97	25.86	211.38	8.56	110.67	333.39	0.22	1.10	27.00	222.38	8.92	82.95	353.19	0.21	0.391	0.514	solubility ([1]; 72 hours, IPA 67% in water v/v): 71.35 mgA/mL; solubility ([1]; 72 hours, IPA 100% neat): 322.55 mgA/mL
CC[C@H]1OC(=O)[C@H](C)[C@@H](O[C@H]2C[C@@](C)(OC)[C@@H](O)[C@H](C)O2)[C@H](C)[C@@H](O[C@@H]2O[C@H](C)C[C@H](N(C)C)[C@H]2O)[C@](C)(O)C[C@@H](C)CN(C)[C@H](C)[C@@H](O)[C@]1(C)O [form N, azithromycin]	1.06	27.33	228.14	9.23	113.08	334.22	0.20	1.11	27.20	225.78	7.36	106.48	322.91	0.24	0.450	0.600	–
